The test system of data set [1] is SUDHL5 cells. As to the kind of experiment: Induction of caspase-3/7 activity (Caspase-Glo 3/7), SUDHL5. The note with it: EC50, median, SUDHL5, 3 h treatment. It counts as cell-based. As for the experimental part: (§1) Induction of Caspase-3/7 Activity Upon Treatment of Cells with Selected Compounds
(§2) The BH3-domain of MCL-1 sequesters pro-apoptotic proteins, thereby inhibiting apoptosis. In contrast, MCL-1 inhibitors are expected to antagonize this effect leading to an increase in apoptosis, which can be determined by measuring the activity of caspase-3/7.
(§3) The activity of caspase-3/7 was determined in DLBCL (Diffuse large B-cell lymphoma) cell lines (SUDHL5 and SUDHL10) upon treatment with different compounds, using the Caspase-Glo® 3/7 reagent from Promega (G8092).
(§4) Rim wells were excluded. The cells were incubated for 3 h hours in a humidified incubator at 37° C.
(§5) For the evaluation of the results, the background measured with “medium-only” was subtracted from all other values.

Data set [2] relates to SUDHL10 cells. As to the kind of experiment: Induction of caspase-3/7 activity (Caspase-Glo 3/7), SUDHL10. The class given is cell-based. The note with it: EC50, median, SUDHL10, 3 h treatment. As for the experimental part: as §1, §2, §3, §4, §5
Data set [3] concerns SUDHL5 cells. As to the kind of experiment: Antiproliferation assay (CellTiter-Glo, 72 h), SUDHL5. The class given is cell-based. The note with it: IC50, median, SUDHL5, 72 h, read-out: Antiproli SUDHL5 [M] (median). How it is done:
(§6) Assessment of the Anti-Proliferative Effect of Compounds in Different Cell Lines
(§7) The impact of compounds on the proliferation of different cell lines was assessed using the CellTiter-Glo® Luminescent Cell Viability reagent from Promega (G7573).
(§8) In parallel, cells were plated in a reference (day 0) plate for time zero determination.
(§9) Rim wells were excluded. The cells were incubated for 72 h hours in a humidified incubator at 37° C. The day 0 plate was measured by adding 30 μL/well of CTG solution (CellTiter-Glo® Luminescent Cell Viability reagent, Promega G7573) to time zero wells in the reference plate followed by a 10 minutes incubation and luminescence reading at 0.1 ms. using the PHERAstar FS microplate reader (BMG Labtech).
(§10) After 72 h incubation, the treated plates were measured in the same way as the day 0 plate mentioned above.
On the technique in general: ATP-based viability assays read luminescence as a measure of living cells.

For another data set, the system named is AMO-1 cells. As to the kind of experiment: Antiproliferation assay (CellTiter-Glo, 72 h), AMO-1. The class given is cell-based. The note with it: IC50, median, AMO-1, 72 h, read-out: Antiproli AMO-1 [M] median. How it is done: as §6, §7, §8, §9, §10
For data set [4], the system named is SUDHL5 cells. As to the kind of experiment: Induction of cytotoxicity (CellTiter-Glo, 5 h), SUDHL5. The note with it: SUDHL5, 5 h.
Protocol: (§11) Therefore, cytotoxicity assays were run in parallel in SUDHL5 and SUDHL10 cells.
(§12) The different cell lines were plated in culture medium (RPMI 1640 [GIBCO #22400-089] supplemented with 10% Fetal Bovine Serum) at a density of 3,300 cells in 30 μL/well in a sterile, solid black, flat bottom, polystyrene, TC-treated 384-well microplate (Corning #3571) using Multidrop Combi Reagent Dispenser. As a control, medium without cells was also added to the plate. Cells were incubated in a humidified incubator at 37° C. overnight. […] Rim wells were excluded. The cells were incubated for 5 h hours in a humidified incubator at 37° C. After this incubation, 30 μL of CellTiter-Glo® Luminescent Cell Viability reagent (Promega, G7573) was added to each well using the Multidrop Combi Reagent Dispenser, followed by 15 min incubation on a shaker at room temperature. Finally, luminescence was read at 0.1 ms, with a gain of 3000 using the PHERAstar FS microplate reader (BMG Labtech).
Data set [5] relates to SUDHL10 cells. As to the kind of experiment: Induction of cytotoxicity (CellTiter-Glo, 5 h), SUDHL10. The note with it: SUDHL10, 5 h.
Protocol: as §11, §12
The mark [6] stands for this setting: Homo sapiens, SU-DHL-5, 5 h, read-out: Cytotox SUDHL5 [M] (median), IC50, median.
The mark [7] stands for this setting: Homo sapiens, SU-DHL10, 5 h, read-out: Cytotox SUDHL10 [M] (median), IC50, median.
Where [8] appears, read: read-out: Cytotox SUDHL5 [M] (median), IC50, median.
Setting [9] is: read-out: Cytotox SUDHL10 [M] (median), IC50, median.

From US11478451B1, “Macrocyclic chlorine substituted indole derivatives” (Bayer Aktiengesellschaft, priority 2017, dated 2022) come the findings set out here.

Each structure is given as a SMILES string. Structures can show the parent of a compound that is named as a salt. Where two headings read alike, the source gives them in different places.

A word on the EC50: it is the concentration at which the effect is half-maximal. A high value points to a need for much substance. `CCc1c2c(nn1C)COCC1(CCn3c(C(=O)O)c(CCCOc4cccc5ccccc45)c4ccc(Cl)c-2c43)CC1` (racemic) [Example 72, (rac)-4′-chloro-3′-ethyl-2′-methyl-7′-{3-[(naphthalen-1-yl)oxy]propyl}-2′,10′,11′,15′-tetrahydro-13′H-spiro[cyclopropane-1,12′-pyrazolo[4′,3′:9,10][1,6]oxazacycloundecino[8,7,6-hi]indole]-8′-carboxylic acid]: the EC50 with SUDHL5 cells [1] (Homo sapiens, SU-DHL-5, 3 h) is 730 nM; with SUDHL10 cells [2] (Homo sapiens, SU-DHL10, 3 h) it was 2800 nM. Besides, the IC50 is 8.8e-07 M in the data set on SUDHL5 cells [3] (Homo sapiens, SU-DHL-5, 72 h); 2.8e-06 M in the data set with AMO-1 cells (Homo sapiens, AMO1, 72 h); 1e-06 M in the data set on SUDHL5 cells [4] (setting [6]); 2.5e-06 M with SUDHL10 cells [5] (setting [7]).
As to `CCc1c2c(nn1C)COCC1CC1Cn1c(C(=O)O)c(CCCOc3cccc4cc(F)ccc34)c3ccc(Cl)c-2c31` (racemic) [Example 106, (rac)-3-chloro-4-ethyl-14-{3-[(6-fluoronaphthalen-1-yl)oxy]propyl}-5-methyl-5,7,9a,10,10a,11-hexahydro-9H-cyclopropa[3,4]pyrazolo[4′,3′:9,10][1,6]oxazacycloundecino[8,7,6-hi]indole-13-carboxylic acid], the EC50 is 2400 nM in the data set with SUDHL5 cells [1] (Homo sapiens, SU-DHL-5, 3 h) and 4600 nM in the data set with SUDHL10 cells [2]. Also, the IC50 was 2.1e-06 M with SUDHL5 cells [3], 8.1e-06 M in the data set on AMO-1 cells, 2.8e-06 M in the data set with SUDHL5 cells [4] (setting [8]) and 5.8e-06 M in the data set with SUDHL10 cells [5] (setting [9]).
Consider `Cc1c2c(nn1C)COCC1CCC1Cn1c(C(=O)O)c(CCCOc3cccc4ccccc34)c3ccc(Cl)c-2c31` (single isomer, unassigned) [Example 80, 3-chloro-4,5-dimethyl-15-{3-[(naphthalen-1-yl)oxy]propyl}-5,7,9,9a,10,11,11a,12-octahydrocyclobuta[3,4]pyrazolo[4′,3′:9,10][1,6]oxazacycloundecino[8,7,6-hi]indole-14-carboxylic acid], for which the 50% effective concentration (EC50) in the data set on SUDHL5 cells [1] (listed as 080) is 490 nM; in the data set on SUDHL10 cells [2] (listed as 080) it was 450 nM. Also, the IC50 in the data set with SUDHL5 cells [3] (Homo sapiens, SU-DHL-5, 72 h) worked out at 2.2e-07 M; with AMO-1 cells (Homo sapiens, AMO1, 72 h), 1.9e-06 M; in the data set with SUDHL5 cells [4] (read-out: Cytotox SUDHL5 [M] (median), IC50, median, listed as 080) it was 5.8e-07 M; in the data set with SUDHL10 cells [5] (read-out: Cytotox SUDHL10 [M] (median), IC50, median, listed as 080) it was 8.1e-07 M.
For the molecule `CCc1c2c(nn1C)CCCN(C)CCn1c(C(=O)O)c(CCCOc3cccc4cc(F)ccc34)c3ccc(Cl)c-2c31` (single isomer, unassigned) [Example 117, (−)-4-chloro-3-ethyl-7-{3-[(6-fluoronaphthalen-1-yl)oxy]propyl}-2,12-dimethyl-10,11,12,13,14,15-hexahydro-2H-pyrazolo[3′,4′:8,9][1,4]diazacycloundecino[10,11,1-hi]indole-8-carboxylic acid], the EC50 in the data set with SUDHL5 cells [1] worked out at 2400 nM; with SUDHL10 cells [2], 2600 nM. Moreover, the IC50 in the data set with SUDHL5 cells [3] is 3.4e-06 M; in the data set with AMO-1 cells it was 1.2e-06 M; with SUDHL5 cells [4] (setting [8]), 2.6e-06 M; in the data set on SUDHL10 cells [5] (setting [9]) it was 2.3e-06 M.
In the case of `CCc1c2c(nn1C)CN(C)CC(F)(F)CCn1c(C(=O)O)c(CCCOc3cccc4cc(F)ccc34)c3ccc(Cl)c-2c31` (single isomer, unassigned) [Example 128, 4-chloro-3-ethyl-12,12-difluoro-7-{3-[(6-fluoronaphthalen-1-yl)oxy]propyl}-2,14-dimethyl-10,11,12,13,14,15-hexahydro-2H-pyrazolo[3′,4′:8,9][1,6]diazacycloundecino[10,11,1-hi]indole-8-carboxylic acid], the results for the EC50 with SUDHL5 cells [1] and in the data set on SUDHL10 cells [2] were 2100 nM and 3400 nM, respectively. The IC50 in the data set on SUDHL5 cells [3] was 4.1e-06 M; with AMO-1 cells, 6.5e-06 M; with SUDHL5 cells [4] (setting [8]), 2.3e-06 M; in the data set with SUDHL10 cells [5] (setting [9]), 3.6e-06 M.
With `Cc1c2c(nn1C)COCCCCn1c(C(=O)O)c(CCCOc3cccc4cc(F)ccc34)c3ccc(Cl)c-2c31` (single isomer, unassigned; enantiomer 1) [Example 16, (−)-4-chloro-7-{3-[(6-fluoronaphthalen-1-yl)oxy]propyl}-2,3-dimethyl-2,10,11,12,13,15-hexahydropyrazolo[4′,3′:9,10][1,6]oxazacycloundecino[8,7,6-hi]indole-8-carboxylic acid (Enantiomer 1)], the EC50 turned out to be 3600 nM in the data set with SUDHL5 cells [1] (Homo sapiens, SU-DHL-5, 3 h) and 5200 nM with SUDHL10 cells [2] (Homo sapiens, SU-DHL10, 3 h). Also, the IC50 with SUDHL5 cells [3] (Homo sapiens, SU-DHL-5, 72 h) worked out at 1.5e-06 M; with AMO-1 cells (Homo sapiens, AMO1, 72 h), 8.9e-06 M; with SUDHL5 cells [4] (setting [6]), 3.3e-06 M; in the data set on SUDHL10 cells [5] (setting [7]) it was 4.9e-06 M.
As for `CCc1c2c(nn1C)CCCCCCn1c(C(=O)O)c(CCCOc3cccc4cc(F)ccc34)c3ccc(Cl)c-2c31` (single isomer, unassigned; enantiomer 1) [Example 70, (+)-4-chloro-3-ethyl-7-{3-[(6-fluoronaphthalen-1-yl)oxy]propyl}-2-methyl-10,11,12,13,14,15-hexahydro-2H-pyrazolo[4′,3′:4,5]azacycloundecino[3,2,1-hi]indole-8-carboxylic acid-N-ethylethanamine salt (Enantiomer 1)], the EC50 amounted to 710 nM in the data set on SUDHL5 cells [1] (Homo sapiens, SU-DHL-5, 3 h) and 1300 nM in the data set on SUDHL10 cells [2] (Homo sapiens, SU-DHL10, 3 h). Besides, the IC50 in the data set on SUDHL5 cells [3] (Homo sapiens, SU-DHL-5, 72 h) worked out at 1.5e-06 M; in the data set with AMO-1 cells (Homo sapiens, AMO1, 72 h), 1.1e-06 M; with SUDHL5 cells [4] (setting [6]) it was 1e-06 M; with SUDHL10 cells [5] (setting [7]) it was 1.7e-06 M.
For `CCc1c2c(nn1C)CN(CC(F)F)CCCCn1c(C(=O)O)c(CCCOc3cccc4cc(F)ccc34)c3ccc(Cl)c-2c31` (single isomer, unassigned; enantiomer 1) [Example 75, (+)-4-chloro-14-(2,2-difluoroethyl)-3-ethyl-7-{3-[(6-fluoronaphthalen-1-yl)oxy]propyl}-2-methyl-10,11,12,13,14,15-hexahydro-2H-pyrazolo[3′,4′:8,9][1,6]diazacycloundecino[10,11,1-hi]indole-8-carboxylic acid-N-ethylethanamine salt (Enantiomer 1)], the EC50 is 550 nM with SUDHL5 cells [1] (listed as 075) and 3500 nM in the data set with SUDHL10 cells [2] (listed as 075). Besides, the IC50 with SUDHL5 cells [3] (listed as 075) stood at 1.6e-06 M; in the data set with AMO-1 cells (listed as 075) it was 4.8e-06 M; in the data set with SUDHL5 cells [4] (read-out: Cytotox SUDHL5 [M] (median), IC50, median, listed as 075) it was 9.1e-07 M; in the data set on SUDHL10 cells [5] (read-out: Cytotox SUDHL10 [M] (median), IC50, median, listed as 075), 1.4e-06 M.
Regarding `CCc1c2c(nn1C)CN(CCC(C)(C)O)CCCCn1c(C(=O)O)c(CCCOc3cccc4cc(F)ccc34)c3ccc(Cl)c-2c31` (single isomer, unassigned; enantiomer 2) [Example 141, 4-chloro-3-ethyl-7-{3-[(6-fluoronaphthalen-1-yl)oxy]propyl}-14-(3-hydroxy-3-methylbutyl)-2-methyl-10,11,12,13,14,15-hexahydro-2H-pyrazolo[3′,4′:8,9][1,6]diazacycloundecino[10,11,1-hi]indole-8-carboxylic acid (Enantiomer 2)], the EC50 in the data set on SUDHL5 cells [1] (Homo sapiens, SU-DHL-5, 3 h) was 3000 nM; in the data set on SUDHL10 cells [2] (Homo sapiens, SU-DHL10, 3 h), 3600 nM. Further, the IC50 in the data set on SUDHL5 cells [3] (Homo sapiens, SU-DHL-5, 72 h) was 1.6e-06 M; with AMO-1 cells (Homo sapiens, AMO1, 72 h), 2.4e-06 M; with SUDHL5 cells [4] (setting [6]), 2.6e-06 M; with SUDHL10 cells [5] (setting [7]) it was 3.6e-06 M.
Regarding `CCc1c2c(nn1C)COCC1(CCn3c(C(=O)O)c(CCCOc4cccc5cc(F)ccc45)c4ccc(Cl)c-2c43)CC1` [Example 111, (+)-4′-chloro-3′-ethyl-7′-{3-[(6-fluoronaphthalen-1-yl)oxy]propyl}-2′-methyl-2′,10′,11′,15′-tetrahydro-13′H-spiro[cyclopropane-1,12′-pyrazolo[4′,3′:9,10][1,6]oxazacycloundecino[8,7,6-hi]indole]-8′-carboxylic acid-N-ethylethanamine salt], the EC50 with SUDHL5 cells [1] amounted to 5000 nM; in the data set with SUDHL10 cells [2], 4900 nM. The IC50 with SUDHL5 cells [3] is 3.1e-07 M; with AMO-1 cells, 8.4e-06 M; in the data set with SUDHL5 cells [4] (setting [8]), 6e-06 M; in the data set on SUDHL10 cells [5] (setting [9]) it was 6.7e-06 M.
